Test results taken from patent publication EP0471756B1, “SACCHARIN DERIVATIVES USEFUL AS PROTEOLYTIC ENZYME INHIBITORS AND PREPARATION THEREOF” (priority 1989, dated 1990).

Experiments:
α-Chymotrypsin = α-Chymotrypsin (Bos taurus, UniProt P00766); experiment: Inactivation of α-chymotrypsin: kon measured, Ki* = koff/kon calculated; assay type: biochemical; conditions: rate of inactivation kon = kobs/[I], value is kon x 10^-3
Protocol: (§1) Thus, instead of measuring a Ki, a Ki* is calculated which is defined as the ratio of the koff/kon, the rate of reactivation of the enzyme to the rate of inactivation of the enzyme. The values of koff and kon are measured and Ki* is then calculated.
(§2) The rate of inactivation, kon, of enzymatic activity was determined for the compounds tested by measuring the enzyme activity of an aliquot of the respective enzyme as a function of time after addition of the test compound. […] The rate of inactivation is then equal to kon =(kobs)/([I]) [formula] where [I] is the concentration of the inhibiting compound.
(§3) The reactivation constant, koff, is similarly determined and the inhibition constant, Ki*, is then calculated as Ki * = koff /kon [formula]

[1] = biological target: T1, human leukocyte elastase (HLE) (Homo sapiens, UniProt P08246); experiment: Inactivation of human leukocyte elastase: kon measured, Ki* = koff/kon calculated; assay type: biochemical; conditions: Elastase; for Ki: Ki* = koff/kon, not a truly reversible inhibition constant; for kinact/KI: read-out: 10^-3 x kon
T1 sequence (P08246 30-267): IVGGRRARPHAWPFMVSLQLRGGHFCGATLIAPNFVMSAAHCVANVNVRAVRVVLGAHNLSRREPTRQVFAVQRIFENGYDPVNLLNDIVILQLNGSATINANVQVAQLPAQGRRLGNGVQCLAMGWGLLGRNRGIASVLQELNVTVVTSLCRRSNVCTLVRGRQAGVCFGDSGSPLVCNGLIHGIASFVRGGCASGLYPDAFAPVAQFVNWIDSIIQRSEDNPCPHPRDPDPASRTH
Protocol: as §1, §2, §3

[2] = rate of inactivation kon = kobs/[I], value is kon x 10^-3

| Compound | kinact/KI (α-Chymotrypsin) | Ki [1] | kinact/KI [1, 2] | 10^-3 x kon [1, 2] |
| --- | --- | --- | --- | --- |
| Cn1nnnc1SCN1C(=O)c2ccccc2S1(=O)=O [Example 8, 2-(1-methyl-1H-tetrazol-5-ylthiomethyl)saccharin] | 2100 M⁻¹ s⁻¹ | 81 nM | 1000 M⁻¹ s⁻¹ |  |
| O=C1c2ccccc2S(=O)(=O)N1CS(=O)(=O)c1ncccn1 [Example 14, 2-(2-pyrimidylsulfonylmethyl)saccharin] | 2800 M⁻¹ s⁻¹ |  | 600 M⁻¹ s⁻¹ |  |
| CC(=O)OCN1C(=O)c2c(C)cccc2S1(=O)=O [Example 1, 2-acetoxymethyl-4-methylsaccharin] | 1200 M⁻¹ s⁻¹ |  | 630 M⁻¹ s⁻¹ |  |
| O=C1c2c(Cl)cccc2S(=O)(=O)N1CCl [Example 3, 2-chloromethyl-4-chlorosaccharin] | 5800 M⁻¹ s⁻¹ |  | 450000 M⁻¹ s⁻¹ |  |
| O=C1c2ccccc2S(=O)(=O)N1C[S+]([O-])c1ncccn1 (stereo not shown) [Example 13, 2-(2-pyrimidylsulfinylmethyl)saccharin] | 2600 M⁻¹ s⁻¹ |  | 300 M⁻¹ s⁻¹ |  |
| CC(=O)Nc1cccc(-n2nnnc2SCN2C(=O)c3ccccc3S2(=O)=O)c1 [Example 6, 2-[1-(3-acetamidophenyl)-1H-tetrazol-5-ylthiomethyl]saccharin] | 3700 M⁻¹ s⁻¹ |  | 5500 M⁻¹ s⁻¹ |  |
| O=C1c2c(Cl)cccc2S(=O)(=O)N1Cn1nnn(-c2ccccc2)c1=S [Example 5, 4-chloro-2-(4-phenyl-5-thioxotetrazolin-1-ylmethyl)saccharin] | 6000 M⁻¹ s⁻¹ |  | 44000 M⁻¹ s⁻¹ |  |
| CC(=O)OCN1C(=O)c2c(Cl)cccc2S1(=O)=O [Example 2, 2-acetoxymethyl-4-chlorosaccharin] | 2900 M⁻¹ s⁻¹ |  | 4900 M⁻¹ s⁻¹ |  |
| O=C1c2ccccc2S(=O)(=O)N1CS(=O)(=O)c1ccccc1 [Example 12, 2-(phenylsulfonylmethyl)saccharin] | 1100 M⁻¹ s⁻¹ |  | 970 M⁻¹ s⁻¹ |  |
| O=C1c2ccccc2S(=O)(=O)N1C[S+]([O-])c1nnnn1-c1ccccc1 (stereo not shown) [Example 10, 2-(1-phenyl-1H-tetrazol-5-ylsulfinylmethyl)saccharin] | 7000 M⁻¹ s⁻¹ |  | 7000 M⁻¹ s⁻¹ |  |
| CC(C)c1cccc2c1C(=O)N(CSc1nnnn1CCN1CCOCC1)S2(=O)=O [Example 30BI] |  |  | 39000 M⁻¹ s⁻¹ |  |
| CC(C)c1cccc2c1C(=O)N(CSc1nnnn1CC(=O)N(C)C)S2(=O)=O [Example 30AW] |  |  | 30000 M⁻¹ s⁻¹ |  |
| O=C1c2cccc(Cl)c2S(=O)(=O)N1CSc1nnnn1-c1ccccc1 [Example 30AG] |  | > 1000 nM |  |  |
| COC(=O)c1cccc2c1C(=O)N(CCl)S2(=O)=O [Example 22G] |  |  | 3000 M⁻¹ s⁻¹ |  |
| O=C1c2ccccc2S(=O)(=O)N1COc1c(Cl)cccc1Cl [Example 30BB] |  | > 500 nM |  |  |
| O=C1c2ccccc2S(=O)(=O)N1CSc1nnnn1C1CCCCC1 [Example 9, 2-(1-cyclohexyl-1H-tetrazol-5-ylthiomethyl)saccharin] |  | 32 nM | 2500 M⁻¹ s⁻¹ |  |
| CCOc1cccc2c1C(=O)N(CCl)S2(=O)=O [Example 22H] |  |  | 25000 M⁻¹ s⁻¹ |  |
| O=C1c2ccccc2S(=O)(=O)N1COc1ccc([N+](=O)[O-])cc1 [Example 15, 2-(4-nitrophenoxymethyl)saccharin] |  |  | 3200 M⁻¹ s⁻¹ |  |
| O=C1c2c(-c3ccccc3)cccc2S(=O)(=O)N1CCl [Example 18, 2-chloromethyl-4-phenylsaccharin] | 210 M⁻¹ s⁻¹ |  | 1000 M⁻¹ s⁻¹ |  |
| O=C1c2c(-c3ccccc3)cccc2S(=O)(=O)N1CSc1nnnn1-c1ccccc1 [Example 30BC] |  | 80 nM | 5800 M⁻¹ s⁻¹ |  |
| CCC(C)c1cccc2c1C(=O)N(CCl)S2(=O)=O (stereo not shown) [Example 22B, 2-chloromethyl-4-sec.-butylsaccharin] |  |  | 2400 M⁻¹ s⁻¹ |  |
| O=C1c2ccccc2S(=O)(=O)N1CSc1nnnn1-c1cccnc1 [Example 30Q] |  |  | 1380 M⁻¹ s⁻¹ |  |
| CCc1cccc2c1C(=O)N(CCl)S2(=O)=O [Example 28] |  |  |  | 50.7 M^-1 sec^-1 |
| COC(=O)c1cc(C(=O)OC)cc(-n2nnnc2SCN2C(=O)c3ccccc3S2(=O)=O)c1 [Example 30E] |  |  | 7300 M⁻¹ s⁻¹ |  |
| O=C1c2cccc(Cl)c2S(=O)(=O)N1CCl [Example 22D] |  |  | 75800 M⁻¹ s⁻¹ |  |
| CC(C)c1cccc2c1C(=O)N(CCl)S2(=O)=O [Example 22E] |  |  | 4700 M⁻¹ s⁻¹ |  |
| CC(C)c1cccc2c1C(=O)N(Cn1nnn(-c3cccnc3)c1=S)S2(=O)=O [Example 30Z] |  |  | 70000 M⁻¹ s⁻¹ |  |
| O=C1c2c(Cl)cccc2S(=O)(=O)N1CSc1nnnn1-c1ccccc1 [Example 4, 4-chloro-2-(1-phenyl-1H-tetrazol-5-ylthiomethyl) saccharin] |  |  | 20000 M⁻¹ s⁻¹ |  |
| O=C(O)Cn1nnnc1SCN1C(=O)c2ccccc2S1(=O)=O [Example 34, 2-[1-(2-carboxymethyl)-1H-tetrazol-5-ylthiomethyl]saccharin] |  |  | 400 M⁻¹ s⁻¹ |  |
